These results are taken from ChEMBL document CHEMBL1201862, “PubChem BioAssay data set” (2004).

The source made the active and inactive calls. Where only a bound is given, the exact number is not on record here.

Assay [1] deals with T1, Kappa-type opioid receptor (Homo sapiens, UniProt P41145). In kind it is functional.
The next assay has as its target Mu-type opioid receptor (Homo sapiens, UniProt P35372). The assay can be described thus: HTS Image-Based Screen for Agonists of the MOR Receptor. [Related pubchem assays (depositor defined):AID1777, AID1785, AID1786, AID2133]. In kind it is functional.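 Note: imaging of beta-arrestin GFP recruitment into spots after receptor activation.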
In assay [2] the target is T2, Delta-type opioid receptor (Homo sapiens, UniProt P41143). The assay can be described thus: HTS Image-Based Screen for Antagonists of the DOR Receptor. [Related pubchem assays (depositor defined):AID1777, AID1785, AID1786, AID2133]. In kind it is functional.
T2 sequence (P41143 whole entry): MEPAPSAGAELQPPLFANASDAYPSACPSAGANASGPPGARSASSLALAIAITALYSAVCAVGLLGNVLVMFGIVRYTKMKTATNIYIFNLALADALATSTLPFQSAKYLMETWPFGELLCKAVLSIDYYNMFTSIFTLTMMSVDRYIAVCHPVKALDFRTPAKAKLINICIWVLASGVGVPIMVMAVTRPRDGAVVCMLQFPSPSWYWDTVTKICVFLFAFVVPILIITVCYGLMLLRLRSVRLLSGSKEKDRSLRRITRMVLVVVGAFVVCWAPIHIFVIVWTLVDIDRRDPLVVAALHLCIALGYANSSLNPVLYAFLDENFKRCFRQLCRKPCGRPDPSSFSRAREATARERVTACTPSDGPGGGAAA
For assay [3], the target named is T1, Kappa-type opioid receptor. Type of assay: functional. The source holds these as a separate data set.
Assay [4] has as its target T2, Delta-type opioid receptor. The assay can be described thus: HTS Image-Based Screen for Agonists of the DOR Receptor. [Related pubchem assays (depositor defined):AID1777, AID1786, AID2133]. Type of assay: functional.
The target of the next assay is Beta-galactosidase (Escherichia coli, UniProt Q8VNN2). Type of assay: functional.
Another assay deals with Troponin, cardiac muscle (Homo sapiens, UniProt P19429+P45379+P63316). The experiment in a line: Fluorescence-based biochemical high throughput dose response assay for activators of the calcium sensitivity of cardiac Regulated Thin Filaments (RTF). [Related pubchem assays (depositor defined):AID493008, AID493018, AID504382, AID504383]. In kind it is protein-complex assay.

Assay [5] concerns the target T3, Tyrosine-protein phosphatase non-receptor type 22 (Homo sapiens, UniProt Q9Y2R2).
T3 sequence (Q9Y2R2 whole entry): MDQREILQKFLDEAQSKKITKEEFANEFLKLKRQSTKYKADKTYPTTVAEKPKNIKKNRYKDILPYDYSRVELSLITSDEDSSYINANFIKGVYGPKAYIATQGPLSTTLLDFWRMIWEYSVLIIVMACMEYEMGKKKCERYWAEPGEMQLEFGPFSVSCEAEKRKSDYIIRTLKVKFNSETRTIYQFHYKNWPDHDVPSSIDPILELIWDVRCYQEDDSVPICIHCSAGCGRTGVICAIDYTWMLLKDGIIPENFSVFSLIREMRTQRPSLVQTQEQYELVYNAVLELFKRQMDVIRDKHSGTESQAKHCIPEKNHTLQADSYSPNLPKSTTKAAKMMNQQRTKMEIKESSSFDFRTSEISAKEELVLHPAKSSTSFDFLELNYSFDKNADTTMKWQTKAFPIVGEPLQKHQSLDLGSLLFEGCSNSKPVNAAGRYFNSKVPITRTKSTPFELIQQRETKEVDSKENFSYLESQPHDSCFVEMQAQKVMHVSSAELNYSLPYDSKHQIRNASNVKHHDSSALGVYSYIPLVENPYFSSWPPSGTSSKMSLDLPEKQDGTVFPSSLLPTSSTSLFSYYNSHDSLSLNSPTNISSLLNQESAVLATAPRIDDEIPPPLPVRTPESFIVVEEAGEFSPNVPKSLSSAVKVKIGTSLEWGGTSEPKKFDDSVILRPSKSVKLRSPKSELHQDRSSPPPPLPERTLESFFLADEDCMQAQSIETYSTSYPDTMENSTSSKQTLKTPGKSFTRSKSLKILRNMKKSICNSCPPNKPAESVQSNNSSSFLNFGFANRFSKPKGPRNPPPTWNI
In kind it is functional.

Assay [6] deals with T4, Dual specificity protein phosphatase 3 (Homo sapiens, UniProt P51452). The experiment in a line: SAR VHR1 Fluorescent Assay for In Vitro dose response studies. [Related pubchem assays (depositor defined):AID1654, AID1661, AID1878, AID1992, AID2004, AID2070, AID2085]. Type of assay: functional.
T4 sequence (P51452 whole entry): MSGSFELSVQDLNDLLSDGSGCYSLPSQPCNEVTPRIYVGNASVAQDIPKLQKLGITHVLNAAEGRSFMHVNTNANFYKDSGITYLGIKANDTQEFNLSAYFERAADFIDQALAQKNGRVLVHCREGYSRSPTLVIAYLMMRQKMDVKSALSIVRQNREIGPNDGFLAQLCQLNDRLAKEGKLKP
Assay [7] has as its target T4, Dual specificity protein phosphatase 3. The experiment in a line: SAR VHR1 absorbance Assay for In Vitro dose response studies. [Related pubchem assays (depositor defined):AID1654, AID1661, AID1878, AID1992, AID2004].
For assay [8] the target is unchanged. The experiment in a line: VHR1 phosphatase inhibitors, biochemical (AID 1878).
Assay [9] concerns the target T5, Small ubiquitin-related modifier 1 (Homo sapiens, UniProt P63165). The assay can be described thus: SUMO1 protein interaction blockers, potency – biochemical, fluorescence polarization, uHTS hits, dose response (AID 624382). As to conditions: read-out: IC50_Mean. Type of assay: functional. A general note: Fluorescence polarisation rises when a labelled molecule tumbles more slowly, as on binding a larger partner.

For assay [10], the target named is Induced myeloid leukemia cell differentiation protein Mcl-1 (Homo sapiens, UniProt Q07820). In kind it is functional.
Sequence of Induced myeloid leukemia cell differentiation protein Mcl-1 (Q07820 whole entry): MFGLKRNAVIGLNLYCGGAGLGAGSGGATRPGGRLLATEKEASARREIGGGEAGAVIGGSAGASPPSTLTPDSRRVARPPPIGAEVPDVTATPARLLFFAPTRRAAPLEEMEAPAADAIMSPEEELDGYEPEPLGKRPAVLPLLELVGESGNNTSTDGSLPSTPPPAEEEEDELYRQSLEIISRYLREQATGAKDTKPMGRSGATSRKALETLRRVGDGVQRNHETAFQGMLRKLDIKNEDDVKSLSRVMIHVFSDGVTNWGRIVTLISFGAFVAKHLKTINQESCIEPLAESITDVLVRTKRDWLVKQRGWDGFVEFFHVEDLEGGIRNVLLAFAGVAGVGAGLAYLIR
The target of assay [11] is Eukaryotic translation initiation factor 4E (Mus musculus, UniProt P63073). The experiment in a line: blockers of eIF4G binding by eIF4E – biochemical, TR-FRET, dose response (AID 855).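 Note: potency for disrupting eIF4E binding to eIF4GI seen as loss of FRET.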 In kind it is functional. (In general: TR-FRET usually uses a lanthanide donor and a delayed reading to cut background.)
Sequence of Eukaryotic translation initiation factor 4E (P63073 whole entry): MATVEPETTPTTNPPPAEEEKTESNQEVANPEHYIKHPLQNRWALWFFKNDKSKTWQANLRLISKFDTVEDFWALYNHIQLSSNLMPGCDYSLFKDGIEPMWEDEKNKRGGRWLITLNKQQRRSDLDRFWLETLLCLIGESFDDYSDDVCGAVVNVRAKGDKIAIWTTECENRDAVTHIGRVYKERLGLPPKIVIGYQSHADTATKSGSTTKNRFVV
Assay [12] has as its target T5, Small ubiquitin-related modifier 1. The experiment in a line: SUMO1 protein-protein binding blockers, potency – biochemical, FRET, dose response (AID 624383). In kind it is functional. Conditions: read-out: IC50_Mean.
Assay [13] concerns the target T6, Voltage-gated N-type calcium channel alpha-1B subunit/Amyloid beta A4 precursor protein-binding family A member 1 (Homo sapiens, UniProt Q00975+Q02410). Type of assay: protein assay.
In assay [14] the target is T7, Tyrosine-protein phosphatase non-receptor type 7 (Homo sapiens, UniProt P35236).
T7 sequence (P35236 whole entry): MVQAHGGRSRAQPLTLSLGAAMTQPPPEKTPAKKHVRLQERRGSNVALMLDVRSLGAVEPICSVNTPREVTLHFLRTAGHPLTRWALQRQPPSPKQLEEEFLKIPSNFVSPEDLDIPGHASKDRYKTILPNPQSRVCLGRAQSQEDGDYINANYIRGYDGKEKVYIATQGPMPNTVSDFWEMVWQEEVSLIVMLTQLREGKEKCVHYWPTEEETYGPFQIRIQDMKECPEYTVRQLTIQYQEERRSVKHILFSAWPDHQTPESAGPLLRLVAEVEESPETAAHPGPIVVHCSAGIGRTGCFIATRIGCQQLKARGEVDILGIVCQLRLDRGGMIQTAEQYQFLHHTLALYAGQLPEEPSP
The experiment in a line: redox-active compounds inhibiting HePTP phosphatase – biochemical, fluorescence, mechanism study (AID 2068). In kind it is functional.

Assay [15] addresses 72 kDa type IV collagenase (Homo sapiens, UniProt P08253). The experiment in a line: Dose Response validation of uHTS RPN11 inhibitor hits using a MMP-2 Fluorescence assay. Type of assay: functional.
Assay [16] addresses T8, Dual specificity protein phosphatase 6 (Rattus norvegicus, UniProt Q64346).
T8 sequence (Q64346 whole entry): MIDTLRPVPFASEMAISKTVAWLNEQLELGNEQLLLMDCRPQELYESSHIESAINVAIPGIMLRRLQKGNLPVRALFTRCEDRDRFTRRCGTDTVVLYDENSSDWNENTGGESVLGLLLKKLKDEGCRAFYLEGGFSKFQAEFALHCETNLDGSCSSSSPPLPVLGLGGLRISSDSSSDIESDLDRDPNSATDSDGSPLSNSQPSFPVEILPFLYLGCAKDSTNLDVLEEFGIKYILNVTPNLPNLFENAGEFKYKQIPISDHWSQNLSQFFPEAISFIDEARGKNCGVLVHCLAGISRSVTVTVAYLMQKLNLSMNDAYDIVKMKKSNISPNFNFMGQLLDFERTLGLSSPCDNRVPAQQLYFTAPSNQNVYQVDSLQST
Type of assay: functional.

A further assay concerns the target Prothrombin (Bos taurus, UniProt P00735). The experiment in a line: thrombin protease inhibitors – biochemical, fluorescence polarization, uHTS hits, dose response (AID 602369). Type of assay: functional.
In assay [17] the target is 26S proteasome non-ATPase regulatory subunit 14 (Homo sapiens, UniProt O00487). The experiment in a line: inhibition of proteasome subunit RPN11 – biochemical, fluorescence polarization, uHTS hits, confirmation (AID 602368). In kind it is functional.
Sequence of 26S proteasome non-ATPase regulatory subunit 14 (O00487 whole entry): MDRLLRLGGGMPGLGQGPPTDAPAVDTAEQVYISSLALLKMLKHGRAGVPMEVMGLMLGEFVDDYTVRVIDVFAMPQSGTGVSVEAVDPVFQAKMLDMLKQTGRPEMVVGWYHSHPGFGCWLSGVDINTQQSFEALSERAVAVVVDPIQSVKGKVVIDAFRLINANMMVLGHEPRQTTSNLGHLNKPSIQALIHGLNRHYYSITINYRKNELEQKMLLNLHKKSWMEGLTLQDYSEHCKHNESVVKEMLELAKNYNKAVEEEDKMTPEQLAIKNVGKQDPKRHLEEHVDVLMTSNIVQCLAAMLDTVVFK
In assay [18] the target is T3, Tyrosine-protein phosphatase non-receptor type 22. In kind it is functional. This is another data set of the same source.
The target of assay [19] is T4, Dual specificity protein phosphatase 3. The assay can be described thus: VHR1 phosphatase inhibitors, primary screen, biochemical, absorbance, uHTS (AID 1654).
The target in assay [20] is T7, Tyrosine-protein phosphatase non-receptor type 7. In kind it is functional.
For assay [21], the target named is T8, Dual specificity protein phosphatase 6. The experiment in a line: inhibition of rat DUSP6 enzyme activity – biochemical, in vitro, primary screen (AID 425).
The next assay has as its target NS3 (Hepatitis C virus, UniProt A3EZJ3). The assay can be described thus: PubChem AID 2173. The arrangement: species or system Hepacivirus hominis.
Assay [22] addresses T6, Voltage-gated N-type calcium channel alpha-1B subunit/Amyloid beta A4 precursor protein-binding family A member 1. Type of assay: protein assay. The source holds these as a separate data set.
Assay [23] has as its target T4, Dual specificity protein phosphatase 3. The assay can be described thus: SAR VHR1 Fluorescent Assay for In Vitro dose response studies Set 2. [Related pubchem assays (depositor defined):AID1654, AID1661, AID1878]. In kind it is functional.
Assay [24] addresses T9, G-protein coupled receptor 35 (Homo sapiens, UniProt Q9HC97). The assay can be described thus: SAR analysis of Agonists of the GPR35 Receptor using an Image-Based Assay - Set 4. [Related pubchem assays (depositor defined):AID2013, AID2026]. In kind it is functional.
Assay [25] addresses T10, Cannabinoid receptor 2 (Homo sapiens, UniProt P34972). The assay can be described thus: SAR analysis of antagonists of the Cannabinoid Receptor 2 using an Image-Based Assay - Set 3. [Related pubchem assays (depositor defined):AID2013, AID2026]. In kind it is functional.
The target of assay [26] is T9, G-protein coupled receptor 35. The experiment in a line: SAR analysis of Antagonists of the GPR35 Receptor using an Image-Based Assay - Set 6. [Related pubchem assays (depositor defined):AID2013, AID2026]. Type of assay: functional.
Assay [27] has as its target T10, Cannabinoid receptor 2. The assay can be described thus: SAR analysis of agonists of the Cannabinoid Receptor 2 using an Image-Based Assay - Set 3. [Related pubchem assays (depositor defined):AID2013, AID2026]. Type of assay: functional.
The target of assay [28] is T11, Cannabinoid receptor 1 (Homo sapiens, UniProt P21554). The assay can be described thus: SAR analysis of antagonists of the Cannabinoid Receptor 1 using an Image-Based Assay - Set 4. [Related pubchem assays (depositor defined):AID2013, AID2026]. Type of assay: functional.
T11 sequence (P21554 whole entry): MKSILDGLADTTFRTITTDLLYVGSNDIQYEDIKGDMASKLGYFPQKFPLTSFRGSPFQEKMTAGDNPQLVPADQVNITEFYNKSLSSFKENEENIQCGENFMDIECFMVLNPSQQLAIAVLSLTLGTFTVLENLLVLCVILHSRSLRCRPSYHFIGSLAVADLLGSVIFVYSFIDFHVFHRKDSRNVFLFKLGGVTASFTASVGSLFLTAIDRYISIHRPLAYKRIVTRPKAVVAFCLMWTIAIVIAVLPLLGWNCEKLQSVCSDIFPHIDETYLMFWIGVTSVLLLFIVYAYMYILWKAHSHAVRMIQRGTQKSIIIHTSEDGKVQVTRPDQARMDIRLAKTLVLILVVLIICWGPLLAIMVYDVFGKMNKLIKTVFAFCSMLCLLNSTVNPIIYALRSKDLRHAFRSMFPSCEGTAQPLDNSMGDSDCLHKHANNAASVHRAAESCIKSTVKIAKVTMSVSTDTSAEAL
In assay [29] the target is G-protein coupled receptor 55 (Homo sapiens, UniProt Q9Y2T6). The assay can be described thus: SAR Analysis of Selective Antagonists of GPR55 using an Image-Based Assay - Set 4. [Related pubchem assays (depositor defined):AID2013, AID2026]. In kind it is functional.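 Note: antagonism of response to 5 µM lysophosphatidylinositol agonist.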
Assay [30] concerns the target T11, Cannabinoid receptor 1. The experiment in a line: SAR analysis of agonists of the Cannabinoid Receptor 1 using an Image-Based Assay - Set 4. [Related pubchem assays (depositor defined):AID2013, AID2026]. Type of assay: functional.
Assay [31] has as its target T1, Kappa-type opioid receptor. The experiment in a line: SAR analysis of small molecule agonists of the kappa opioid receptor via a luminescent beta-arrestin assay - Set 3. [Related pubchem assays (depositor defined):AID1777, AID1785, AID1786, AID1966, AID2133, AID2136, AID2284, AID2500]. In kind it is functional.

Usually EC50 stands for the concentration needed to bring the measured effect to its halfway point.

T1 sequence (P41145 whole entry): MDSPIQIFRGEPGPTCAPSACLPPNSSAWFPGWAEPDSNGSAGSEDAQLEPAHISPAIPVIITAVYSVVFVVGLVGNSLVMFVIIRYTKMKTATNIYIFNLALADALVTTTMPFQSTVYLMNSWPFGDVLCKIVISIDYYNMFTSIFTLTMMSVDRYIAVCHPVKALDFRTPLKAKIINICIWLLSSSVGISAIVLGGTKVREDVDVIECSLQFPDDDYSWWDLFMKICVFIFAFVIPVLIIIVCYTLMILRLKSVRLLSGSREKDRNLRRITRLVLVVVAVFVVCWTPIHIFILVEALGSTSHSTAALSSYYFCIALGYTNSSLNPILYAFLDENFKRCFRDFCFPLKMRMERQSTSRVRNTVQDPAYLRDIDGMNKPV
T10 sequence (P34972 whole entry): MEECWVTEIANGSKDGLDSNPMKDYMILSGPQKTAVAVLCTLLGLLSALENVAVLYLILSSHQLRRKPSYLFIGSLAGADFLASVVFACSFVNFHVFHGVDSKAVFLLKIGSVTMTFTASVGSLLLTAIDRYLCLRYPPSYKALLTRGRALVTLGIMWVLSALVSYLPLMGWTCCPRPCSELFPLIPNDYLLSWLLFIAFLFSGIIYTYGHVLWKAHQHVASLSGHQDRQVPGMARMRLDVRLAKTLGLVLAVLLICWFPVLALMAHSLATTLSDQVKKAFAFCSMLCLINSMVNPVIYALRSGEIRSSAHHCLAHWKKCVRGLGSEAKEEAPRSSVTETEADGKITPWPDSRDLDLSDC
T9 sequence (Q9HC97 whole entry): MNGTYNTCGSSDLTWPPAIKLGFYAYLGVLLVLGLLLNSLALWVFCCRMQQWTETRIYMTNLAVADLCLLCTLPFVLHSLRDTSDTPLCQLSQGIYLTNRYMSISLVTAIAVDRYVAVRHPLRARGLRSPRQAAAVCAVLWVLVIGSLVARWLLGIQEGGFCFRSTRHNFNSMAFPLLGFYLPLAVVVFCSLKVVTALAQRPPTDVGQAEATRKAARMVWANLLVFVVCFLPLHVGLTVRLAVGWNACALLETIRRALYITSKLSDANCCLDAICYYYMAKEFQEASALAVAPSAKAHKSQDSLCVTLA
T5 sequence (P63165 whole entry): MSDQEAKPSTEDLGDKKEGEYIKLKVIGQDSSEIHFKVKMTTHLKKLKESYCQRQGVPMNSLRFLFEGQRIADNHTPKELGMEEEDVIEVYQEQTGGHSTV
Sequence of Mu-type opioid receptor (P35372 whole entry): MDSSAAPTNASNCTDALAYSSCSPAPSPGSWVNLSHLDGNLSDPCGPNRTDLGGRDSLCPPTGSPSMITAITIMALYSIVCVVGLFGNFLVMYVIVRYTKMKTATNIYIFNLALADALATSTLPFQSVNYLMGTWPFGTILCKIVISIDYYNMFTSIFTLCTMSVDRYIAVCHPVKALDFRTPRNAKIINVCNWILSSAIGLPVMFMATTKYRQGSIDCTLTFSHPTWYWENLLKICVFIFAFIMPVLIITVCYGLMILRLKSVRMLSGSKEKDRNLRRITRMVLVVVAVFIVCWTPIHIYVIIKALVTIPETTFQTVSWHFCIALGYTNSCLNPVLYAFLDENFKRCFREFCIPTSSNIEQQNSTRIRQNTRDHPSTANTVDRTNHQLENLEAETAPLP
Sequence of 72 kDa type IV collagenase (P08253 whole entry): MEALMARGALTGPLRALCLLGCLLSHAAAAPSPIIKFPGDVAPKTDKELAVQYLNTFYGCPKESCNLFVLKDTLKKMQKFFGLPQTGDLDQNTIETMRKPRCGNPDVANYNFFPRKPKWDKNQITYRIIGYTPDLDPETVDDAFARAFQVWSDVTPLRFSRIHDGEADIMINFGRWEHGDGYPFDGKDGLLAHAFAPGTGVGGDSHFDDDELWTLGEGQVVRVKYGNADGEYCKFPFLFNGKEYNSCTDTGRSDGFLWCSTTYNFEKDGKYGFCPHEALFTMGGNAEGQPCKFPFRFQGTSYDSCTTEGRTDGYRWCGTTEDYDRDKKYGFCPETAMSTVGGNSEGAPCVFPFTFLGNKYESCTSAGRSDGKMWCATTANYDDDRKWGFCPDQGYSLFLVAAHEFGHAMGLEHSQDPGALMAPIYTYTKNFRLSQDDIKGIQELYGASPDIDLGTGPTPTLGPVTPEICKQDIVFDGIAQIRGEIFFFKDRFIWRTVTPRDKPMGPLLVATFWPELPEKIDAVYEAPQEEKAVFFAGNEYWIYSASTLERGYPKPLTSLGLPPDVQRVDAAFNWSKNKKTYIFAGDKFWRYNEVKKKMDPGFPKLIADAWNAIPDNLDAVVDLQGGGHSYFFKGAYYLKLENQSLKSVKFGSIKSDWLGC
Sequence of NS3 (A3EZJ3 whole entry): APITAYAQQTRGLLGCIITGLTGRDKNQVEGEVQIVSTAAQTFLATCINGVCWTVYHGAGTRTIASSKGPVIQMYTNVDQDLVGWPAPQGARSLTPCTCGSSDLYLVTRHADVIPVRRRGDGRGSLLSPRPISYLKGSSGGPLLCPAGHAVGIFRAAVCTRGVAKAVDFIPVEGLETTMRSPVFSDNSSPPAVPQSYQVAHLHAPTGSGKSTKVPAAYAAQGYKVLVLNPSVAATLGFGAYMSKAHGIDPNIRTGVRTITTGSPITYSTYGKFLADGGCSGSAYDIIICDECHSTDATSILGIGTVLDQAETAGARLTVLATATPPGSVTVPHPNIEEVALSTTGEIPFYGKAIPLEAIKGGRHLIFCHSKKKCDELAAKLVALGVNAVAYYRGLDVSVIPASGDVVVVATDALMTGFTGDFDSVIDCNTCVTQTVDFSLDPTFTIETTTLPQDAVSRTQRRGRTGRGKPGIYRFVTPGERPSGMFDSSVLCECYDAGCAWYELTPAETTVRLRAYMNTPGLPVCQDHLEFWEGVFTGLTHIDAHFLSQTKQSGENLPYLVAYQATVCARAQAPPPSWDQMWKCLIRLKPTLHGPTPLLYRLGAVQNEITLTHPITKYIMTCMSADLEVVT

In the case of `COc1ccc(S(=O)(=O)N(CC(=O)Nc2ccc(S(=O)(=O)N3CCOCC3)cc2)c2ccccc2)cc1`, the IC50 in [1] was 4.04 µM; in assay [2], > 32 µM (inactive); in [3], 2.82 µM (active). In addition, the EC50 is > 32 µM (inactive) at Mu-type opioid receptor, > 32 µM (inactive) in [4] and > 31.5 µM (inactive) at Beta-galactosidase.

Turning to `C=CCN1C(=O)/C(=C/c2ccc(N3CCOCC3)o2)C(=O)NC1=S`, the EC50 on Troponin, cardiac muscle is 5.95 µM (active).

For `CCOC(=O)c1sc2nc3c(SCCC(=O)O)cc(C(=O)c4cc(OC)ccc4O)cn3c(=O)c2c1C`, the IC50 is 2.02 µM (active) in assay [5]; 480 nM (active) in assay [6]; 1.29 µM (active) in assay [7]; < 1.23 µM (inactive) in [8]; > 66.6 µM (inactive) in assay [9]; 1.24 µM (active) in assay [10]. The IC50 in assay [11] was 50 µM (inactive); in [12], 5.54 µM (active); in [13], 8.15 µM (active); in assay [14], 209 nM (active); in assay [15] it was 1.04 µM (active); in assay [16] it was 59.5 µM (active). Also, the IC50 on Prothrombin is 72.5 µM (active); in [17] it was 8.13 µM (active); in assay [18], 7.26 µM (active); in assay [19], 4.87 µM (active); in assay [20] it was 1.68 µM (active); in [21], 101 µM (not active). For the same molecule, the figures for the IC50 (at NS3; in assay [22]; in [23]) were 2.58 µM (active), 36.2 µM (active) and < 195 nM (active), respectively.

`Cc1ccc(-n2cc3c(-c4ccc(Cl)cc4)nnc(C)c3n2)cc1`: the EC50 (in assay [24]; on Cannabinoid receptor 2 [27]; on Cannabinoid receptor 1 [30]) was > 32 µM (inactive) each time. Besides, the IC50 at Cannabinoid receptor 2 [25] is 29.8 µM (inactive); in assay [26], > 32 µM (inactive); on Cannabinoid receptor 1 [28], 870 nM (active); in [29] it was 6.13 µM (active).

`c1ccc(CSc2nnc(-c3ccncc3)n2Cc2ccco2)cc1`: the EC50 in [31] is > 20 µM (inactive).
